The values that follow are results of earlier work, collected in patent publication EP3067353A1, “A PROCESS FOR THE PREPARATION OF SOLIFENACIN SALTS AND THEIR INCLUSION INTO PHARMACEUTICAL DOSAGE FORMS” (KRKA, D.D., Novo Mesto, priority 2008, dated 2010).

The conditions of series [1]: relative humidity of 70% (room temperature).

Each structure is given as a SMILES string. Structures can show the parent of a compound that is named as a salt.

Take `O=C(O[C@H]1CN2CCC1CC2)N1CCc2ccccc2[C@@H]1c1ccccc1` [hydrochloride]: the “impurities during long term storage” value is reported as “increase of impurities during long term storage”. The hygroscopicity entry in series [1] is “so hydroscopic as to deliquence”.
